Numbered stars: 1 amine (or outer) side, 2 acyl side, 3 side chain; on linkers, the order of the positions; unused ones are H or OH. Square brackets hold non-standard residues; d marks the D form. Peptide text beside a SMILES is read from it. X1 = CC(C)(CN([C@@H](CCC(N)=O)C(=O)[*:2])[*:1])NC(=O)[C@@H](N)Cc1c[nH]cn1; Aib = CC(C)(N)C(=O)O
What was measured:
[1] = biological target: Glucagon receptor (Mus musculus, UniProt Q61606); experiment: Agonist activity at mouse GCGR expressed in CHO cells assessed as increase in cAMP accumulation; type: cell-based
Sequence of Glucagon receptor (Q61606 whole entry): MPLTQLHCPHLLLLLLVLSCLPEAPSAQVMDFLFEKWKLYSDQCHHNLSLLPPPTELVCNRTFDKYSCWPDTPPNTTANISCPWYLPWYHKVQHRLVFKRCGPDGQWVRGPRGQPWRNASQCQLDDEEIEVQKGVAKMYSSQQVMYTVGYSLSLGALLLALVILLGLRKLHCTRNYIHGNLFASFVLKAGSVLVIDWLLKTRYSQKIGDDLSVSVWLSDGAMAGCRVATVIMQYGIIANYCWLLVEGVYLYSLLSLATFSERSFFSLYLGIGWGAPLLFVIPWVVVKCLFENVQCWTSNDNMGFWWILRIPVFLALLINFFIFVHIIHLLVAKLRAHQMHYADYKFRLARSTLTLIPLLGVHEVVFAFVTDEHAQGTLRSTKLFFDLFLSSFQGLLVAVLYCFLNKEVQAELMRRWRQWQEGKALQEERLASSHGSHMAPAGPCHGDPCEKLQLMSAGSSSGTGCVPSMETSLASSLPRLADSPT

[2] = biological target: T1, Glucagon-like peptide 1 receptor (Mus musculus, UniProt O35659); experiment: Agonist activity at mouse GLP-1R expressed in CHO cells assessed as increase in cAMP accumulation; type: cell-based
T1 sequence (O35659 whole entry): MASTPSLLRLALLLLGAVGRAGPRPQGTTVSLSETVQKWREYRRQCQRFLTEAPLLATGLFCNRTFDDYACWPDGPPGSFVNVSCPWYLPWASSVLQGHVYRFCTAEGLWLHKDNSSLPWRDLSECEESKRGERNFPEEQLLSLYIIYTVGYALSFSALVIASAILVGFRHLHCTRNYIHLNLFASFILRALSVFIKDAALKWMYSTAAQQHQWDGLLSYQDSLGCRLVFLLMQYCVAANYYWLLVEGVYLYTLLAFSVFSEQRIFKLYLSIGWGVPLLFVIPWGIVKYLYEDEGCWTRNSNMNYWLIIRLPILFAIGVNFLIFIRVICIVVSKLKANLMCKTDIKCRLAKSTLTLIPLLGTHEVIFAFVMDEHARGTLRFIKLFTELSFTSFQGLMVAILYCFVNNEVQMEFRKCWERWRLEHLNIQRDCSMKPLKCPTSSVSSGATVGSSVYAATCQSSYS

| Structure (SMILES) | EC50 [1] | EC50 [2] |
| --- | --- | --- |
| CSCC[C@H](NC(=O)[C@H](CC(C)C)NC(=O)[C@H](Cc1c[nH]c2ccccc12)NC(=O)[C@H](CS)NC(=O)[C@@H](NC(=O)[C@H](Cc1ccccc1)NC(=O)[C@H](CCC(=O)O)NC(=O)[C@H](CCCCN)NC(=O)[C@H](C)NC(=O)[C@H](CCCNC(=N)N)NC(=O)[C@H](CCCCN)NC(=O)[C@H](CCC(=O)O)NC(=O)[C@H](CC(=O)O)NC(=O)[C@H](CC(C)C)NC(=O)[C@H](Cc1ccc(O)cc1)NC(=O)[C@H](CCCCN)NC(=O)[C@H](CO)NC(=O)[C@H](Cc1ccc(O)cc1)NC(=O)[C@H](CC(=O)O)NC(=O)[C@H](CO)NC(=O)[C@@H](NC(=O)[C@H](Cc1ccccc1)NC(=O)[C@@H](NC(=O)CNC(=O)[C@H](CCC(N)=O)NCC(C)(C)NC(=O)[C@@H](N)Cc1c[nH]cn1)[C@@H](C)O)[C@@H](C)O)C(C)C)C(=O)N[C@@H](CC(N)=O)C(=O)N[C@H](C(=O)NCC(=O)N1CCC[C@H]1C(=O)N[C@@H](CO)C(=O)N[C@@H](CO)C(=O)NCC(=O)N[C@@H](C)C(=O)N1CCC[C@H]1C(=O)N[C@@H](CO)C(N)=O)[C@@H](C)O (H-[X1]GTFTSDYSKYLDEKRAKEFVCWLMNTGPSSGAPS-NH2) | 0.68 nM | 0.45 nM |
| CSCC[C@H](NC(=O)[C@H](CC(C)C)NC(=O)[C@H](Cc1c[nH]c2ccccc12)NC(=O)[C@H](CCC(N)=O)NC(=O)[C@@H](NC(=O)[C@H](Cc1ccccc1)NC(=O)[C@H](CCC(=O)O)NC(=O)[C@H](CCCCN)NC(=O)[C@H](C)NC(=O)[C@H](CCCNC(=N)N)NC(=O)[C@H](CCCCN)NC(=O)[C@H](CCC(=O)O)NC(=O)[C@H](CC(=O)O)NC(=O)[C@H](CC(C)C)NC(=O)[C@H](Cc1ccc(O)cc1)NC(=O)[C@H](CCCCN)NC(=O)[C@H](CO)NC(=O)[C@H](Cc1ccc(O)cc1)NC(=O)[C@H](CC(=O)O)NC(=O)[C@H](CO)NC(=O)[C@@H](NC(=O)[C@H](Cc1ccccc1)NC(=O)[C@@H](NC(=O)CNC(=O)[C@H](CCC(N)=O)NC(=O)C(C)(C)NC(=O)[C@@H](N)Cc1c[nH]cn1)[C@@H](C)O)[C@@H](C)O)C(C)C)C(=O)N[C@@H](CC(N)=O)C(=O)N[C@H](C(=O)NCC(=O)N1CCC[C@H]1C(=O)N[C@@H](CO)C(=O)N[C@@H](CO)C(=O)NCC(=O)N[C@@H](C)C(=O)N1CCC[C@H]1C(=O)N[C@@H](CO)C(N)=O)[C@@H](C)O | 0.53 nM | 0.36 nM |
| CSCC[C@H](NC(=O)[C@H](CC(C)C)NC(=O)[C@H](Cc1c[nH]c2ccccc12)NC(=O)[C@H](CCC(N)=O)NC(=O)[C@@H](NC(=O)[C@H](Cc1ccccc1)NC(=O)[C@H](CCC(=O)O)NC(=O)[C@H](CCCCN)NC(=O)[C@H](C)NC(=O)[C@H](CCCNC(=N)N)NC(=O)[C@H](CCCCN)NC(=O)[C@H](CCC(=O)O)NC(=O)[C@H](CC(=O)O)NC(=O)[C@H](CC(C)C)NC(=O)[C@H](Cc1ccc(O)cc1)NC(=O)[C@H](CCCCN)NC(=O)[C@H](CO)NC(=O)[C@H](Cc1ccc(O)cc1)NC(=O)[C@H](CC(=O)O)NC(=O)[C@H](CO)NC(=O)[C@@H](NC(=O)[C@H](Cc1ccccc1)NC(=O)[C@@H](NC(=O)CNC(=O)[C@H](CCC(N)=O)NC(=O)C(C)(C)NC(=O)[C@@H](N)Cc1c[nH]cn1)[C@@H](C)O)[C@@H](C)O)C(C)C)C(=O)N[C@@H](CC(N)=O)C(=O)N[C@H](C(=O)NCC(=O)N1CCC[C@H]1C(=O)N[C@@H](CO)C(=O)N[C@@H](CO)C(=O)NCC(=O)N[C@@H](C)C(=O)N1CCC[C@H]1C(=O)N[C@@H](CO)C(=O)N[C@@H](CS)C(N)=O)[C@@H](C)O | 0.59 nM | 0.4 nM |
| CC[C@H](C)[C@H](NC(=O)[C@H](CC(N)=O)NC(=O)[C@H](CC(N)=O)NC(=O)[C@H](CCCNC(=N)N)NC(=O)[C@H](CC(N)=O)NC(=O)[C@H](CCCNC(=N)N)NC(=O)[C@H](CCCCN)NC(=O)[C@@H](NC(=O)[C@H](CC(N)=O)NC(=O)[C@H](CCSC)NC(=O)[C@H](CC(C)C)NC(=O)[C@H](Cc1c[nH]c2ccccc12)NC(=O)[C@H](CCC(N)=O)NC(=O)[C@@H](NC(=O)[C@H](Cc1ccccc1)NC(=O)[C@H](CCC(=O)O)NC(=O)[C@H](CCCCN)NC(=O)[C@H](C)NC(=O)[C@H](CCCNC(=N)N)NC(=O)[C@H](CCCCN)NC(=O)[C@H](CCC(=O)O)NC(=O)[C@H](CC(=O)O)NC(=O)[C@H](CC(C)C)NC(=O)[C@H](Cc1ccc(O)cc1)NC(=O)[C@H](CCCCN)NC(=O)[C@H](CO)NC(=O)[C@H](Cc1ccc(O)cc1)NC(=O)[C@H](CC(=O)O)NC(=O)[C@H](CCC(=O)O)NC(=O)[C@@H](NC(=O)[C@H](Cc1ccccc1)NC(=O)[C@@H](NC(=O)CNC(=O)[C@H](CCC(N)=O)NC(=O)C(C)(C)NC(=O)[C@@H](N)Cc1c[nH]cn1)[C@@H](C)O)[C@@H](C)O)C(C)C)[C@@H](C)O)C(=O)N[C@@H](C)C(N)=O (H-H[Aib]QGTFTEDYSKYLDEKRAKEFVQWLMNTKRNRNNIA-NH2) | 9.03 nM | 17.6 nM |

Now from value to compound:

| EC50 [1] | EC50 [2] | Structure (SMILES) |
| --- | --- | --- |
| 3.41 nM | 1.59 nM | CC[C@H](C)[C@H](NC(=O)[C@H](CC(N)=O)NC(=O)[C@H](CC(N)=O)NC(=O)[C@H](CCCNC(=N)N)NC(=O)[C@H](CC(N)=O)NC(=O)[C@H](CCCNC(=N)N)NC(=O)[C@H](CCCCN)NC(=O)[C@@H](NC(=O)[C@H](CC(N)=O)NC(=O)[C@H](CCSC)NC(=O)[C@H](CC(C)C)NC(=O)[C@H](Cc1c[nH]c2ccccc12)NC(=O)[C@H](CCC(N)=O)NC(=O)[C@@H](NC(=O)[C@H](Cc1ccccc1)NC(=O)[C@H](CC(=O)O)NC(=O)[C@H](CCCCN)NC(=O)[C@H](C)NC(=O)[C@H](CCCNC(=N)N)NC(=O)[C@H](CCCNC(=N)N)NC(=O)[C@H](CCC(=O)O)NC(=O)[C@H](CC(=O)O)NC(=O)[C@H](CC(C)C)NC(=O)[C@H](Cc1ccc(O)cc1)NC(=O)[C@H](CCCCN)NC(=O)[C@H](CO)NC(=O)[C@H](Cc1ccc(O)cc1)NC(=O)[C@H](CC(=O)O)NC(=O)[C@H](CO)NC(=O)[C@@H](NC(=O)[C@H](Cc1ccccc1)NC(=O)[C@@H](NC(=O)CNC(=O)[C@H](CCC(N)=O)NC(=O)C(C)(C)NC(=O)[C@@H](N)Cc1c[nH]cn1)[C@@H](C)O)[C@@H](C)O)C(C)C)[C@@H](C)O)C(=O)N[C@@H](C)C(N)=O (H-H[Aib]QGTFTSDYSKYLDERRAKDFVQWLMNTKRNRNNIA-NH2) |
| 6.14 nM | 3.47 nM | CC[C@H](C)[C@H](NC(=O)[C@H](CC(N)=O)NC(=O)[C@H](CC(N)=O)NC(=O)[C@H](CCCNC(=N)N)NC(=O)[C@H](CC(N)=O)NC(=O)[C@H](CCCNC(=N)N)NC(=O)[C@H](CCCCN)NC(=O)[C@@H](NC(=O)[C@H](CC(N)=O)NC(=O)[C@H](CCSC)NC(=O)[C@H](CC(C)C)NC(=O)[C@H](Cc1c[nH]c2ccccc12)NC(=O)[C@H](CCC(N)=O)NC(=O)[C@@H](NC(=O)[C@H](Cc1ccccc1)NC(=O)[C@H](CC(=O)O)NC(=O)[C@H](CCC(N)=O)NC(=O)[C@H](C)NC(=O)[C@H](CCCNC(=N)N)NC(=O)[C@H](CCCNC(=N)N)NC(=O)[C@H](CCC(=O)O)NC(=O)[C@H](CC(=O)O)NC(=O)[C@H](CC(C)C)NC(=O)[C@H](Cc1ccc(O)cc1)NC(=O)[C@H](CCCCN)NC(=O)[C@H](CO)NC(=O)[C@H](Cc1ccc(O)cc1)NC(=O)[C@H](CC(=O)O)NC(=O)[C@H](CO)NC(=O)[C@@H](NC(=O)[C@H](Cc1ccccc1)NC(=O)[C@@H](NC(=O)CNC(=O)[C@H](CCC(N)=O)NC(=O)C(C)(C)NC(=O)[C@@H](N)Cc1c[nH]cn1)[C@@H](C)O)[C@@H](C)O)C(C)C)[C@@H](C)O)C(=O)N[C@@H](C)C(N)=O (H-H[Aib]QGTFTSDYSKYLDERRAQDFVQWLMNTKRNRNNIA-NH2) |

From ChEMBL document CHEMBL5244248, “A novel long-acting oxyntomodulin analogue eliminates diabetes and obesity in mice” (Eur J Med Chem, 2020)
